Laboratory results from ChEMBL document CHEMBL1799993, “Design driven HtL: The discovery and synthesis of new high efficacy β₂-agonists” (Bioorg Med Chem Lett, 2011).
The source made the active and inactive calls. The rule behind the calls is not given here.

Tests used:
Cavia porcellus [1] = assay: Bronchodilatory activity against histamine-induced bronchoconstriction in guinea pig at ED80 intratracheally administered 2 hrs before challenge measured up to 12 hrs; assay type: functional; details: inhaled or nasal
Cavia porcellus [2] = assay: Bronchodilatory activity against histamine-induced bronchoconstriction in guinea pig at ED80 intratracheally administered 2 hrs before challenge measured up to 2 hrs; assay type: functional, organism-based
Cavia porcellus [3] = assay: Bronchodilatory activity against histamine-induced bronchoconstriction in guinea pig at ED80 intratracheally administered 2 hrs before challenge measured after 2 hrs; assay type: functional, organism-based
[4] = biological target: Beta-2 adrenergic receptor (Homo sapiens, UniProt P07550); assay: Agonist activity at human adrenergic beta2 receptor expressed in H292 cells assessed as intracellular cAMP accumulation after 1 hr; assay type: functional, cell-based
Cavia porcellus [5] = organism: Cavia porcellus; assay: Bronchodilatory activity against histamine-induced bronchospasm in guinea pig; assay type: functional, organism-based

Sequence of Beta-2 adrenergic receptor (P07550 whole entry): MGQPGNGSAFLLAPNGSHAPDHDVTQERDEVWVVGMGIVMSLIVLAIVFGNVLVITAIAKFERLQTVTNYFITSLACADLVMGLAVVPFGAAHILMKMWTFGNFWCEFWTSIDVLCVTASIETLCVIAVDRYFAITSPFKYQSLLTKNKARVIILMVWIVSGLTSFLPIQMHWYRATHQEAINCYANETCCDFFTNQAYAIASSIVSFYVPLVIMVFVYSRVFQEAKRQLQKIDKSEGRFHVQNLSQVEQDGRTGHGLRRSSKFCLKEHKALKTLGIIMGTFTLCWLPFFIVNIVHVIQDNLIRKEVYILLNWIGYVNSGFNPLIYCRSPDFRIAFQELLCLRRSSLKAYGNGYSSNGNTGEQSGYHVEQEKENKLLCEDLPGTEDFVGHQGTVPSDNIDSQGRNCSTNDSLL

EC50 [4] [nM] | SMILES | also measured
– | OCc1cc(C(O)CNCCCCCCOCCCCc2ccccc2)ccc1O (configuration not stated) [SALMETEROL] | ED80 (Cavia porcellus [1]): 0.7 µg/kg
1.58 | CCCCN(CCNCCc1ccc(O)c2[nH]c(=O)sc12)C(=O)CCOCCc1ccccc1 | Activity (Cavia porcellus [2]): Active; Activity (Cavia porcellus [3]): inactive; ED80 (Cavia porcellus [1]): 2.6 µg/kg; Activity (Cavia porcellus [5]): Dose-dependent effect
0.501 | CN(CCNCCc1ccc(O)c2[nH]c(=O)sc12)C(=O)CCOCCc1ccccc1 | –
1.58 | O=C(CCOCCc1ccccc1)NCCNCCc1ccc(O)c2nc(O)sc12 | –
> 1000 | CN(CCc1ccc(O)c2[nH]c(=O)sc12)CCN(C)C(=O)CCOCCc1ccccc1 | –
1 | CCN(CCNCCc1ccc(O)c2[nH]c(=O)sc12)C(=O)CCOCCc1ccccc1 | –
0.794 | CCCCN(CCNC[C@H](O)c1ccc(O)c2[nH]c(=O)sc12)C(=O)CCOCCc1ccccc1 | –
7.94 | CCCN(CCNCCc1ccc(O)c2[nH]c(=O)sc12)C(=O)CCOCCc1ccccc1 | –
> 1000 | COc1ccc(CCNCCN(C)C(=O)CCOCCc2ccccc2)c2sc(=O)[nH]c12 | –
7.94 | CC(C)N(CCNCCc1ccc(O)c2[nH]c(=O)sc12)C(=O)CCOCCc1ccccc1 | –
7.94 | CC(C)(CNCCc1ccc(O)c2[nH]c(=O)sc12)NC(=O)CCOCCc1ccccc1 | –
126 | CCCCN(CCN(C)CCc1ccc(O)c2[nH]c(=O)sc12)C(=O)CCOCCc1ccccc1 | –
– | COc1ccc(CC(C)NCC(O)c2ccc(O)c(NC=O)c2)cc1 (configuration not stated) [FORMOTEROL] | ED80 (Cavia porcellus [1]): 1.4 µg/kg
